The text below walks through data of US9555022B2, “Substituted triazolopyridines” (Bayer Intellectual Property GmbH, priority 2010, dated 2017).

The IC50 is the concentration at which inhibition is half-maximal.

This assay concerns the target human full length recombinant Mps-1 kinase (Homo sapiens (Human), UniProt P33981). The assay is described as follows: Mps-1 Kinase Assay (TR-FRET). In kind it is biochemical. The note with it: 10 μM ATP, 1 μM biotinylated peptide substrate, 60 min at 22° C., read-out: Mps-1 Inhibition, IC50 in M. Put shortly: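 GST-tagged full-length recombinant Mps-1 at about 1 nM final, adjusted per lot for linear range, phosphorylated a biotinylated peptide. Product bound Eu-anti-phospho(Ser/Thr) antibody over 1 h at 22° C and was read by TR-FRET to streptavidin-XLent. Compounds scored for kinase inhibition.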

Chain of human full length recombinant Mps-1 kinase (P33981 whole entry): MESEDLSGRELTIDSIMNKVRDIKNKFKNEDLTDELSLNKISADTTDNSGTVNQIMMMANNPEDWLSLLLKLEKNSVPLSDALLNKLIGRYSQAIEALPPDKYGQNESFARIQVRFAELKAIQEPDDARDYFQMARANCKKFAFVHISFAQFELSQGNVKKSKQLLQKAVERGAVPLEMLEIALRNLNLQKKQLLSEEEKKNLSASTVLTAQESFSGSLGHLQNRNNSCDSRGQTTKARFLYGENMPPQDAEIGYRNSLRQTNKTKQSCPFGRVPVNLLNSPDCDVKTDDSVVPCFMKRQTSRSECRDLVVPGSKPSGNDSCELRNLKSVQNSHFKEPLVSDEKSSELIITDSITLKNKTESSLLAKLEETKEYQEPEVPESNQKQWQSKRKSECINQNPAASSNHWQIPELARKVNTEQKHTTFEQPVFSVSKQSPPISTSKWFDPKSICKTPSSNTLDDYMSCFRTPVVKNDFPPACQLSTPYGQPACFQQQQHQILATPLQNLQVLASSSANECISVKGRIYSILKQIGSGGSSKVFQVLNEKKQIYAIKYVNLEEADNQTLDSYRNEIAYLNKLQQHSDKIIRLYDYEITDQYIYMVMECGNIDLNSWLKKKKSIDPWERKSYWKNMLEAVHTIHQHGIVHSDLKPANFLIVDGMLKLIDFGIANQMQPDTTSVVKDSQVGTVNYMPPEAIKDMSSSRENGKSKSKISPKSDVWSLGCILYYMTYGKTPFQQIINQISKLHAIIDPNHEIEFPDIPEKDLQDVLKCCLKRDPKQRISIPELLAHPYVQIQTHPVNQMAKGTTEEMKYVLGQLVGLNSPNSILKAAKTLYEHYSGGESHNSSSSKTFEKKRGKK

Take `COc1cc(C(=O)N2CCOCC2)ccc1Nc1nc2ccc(-c3ccc(NC(=O)Cc4ccc(F)cc4)c(F)c3)cn2n1` [Example 10.01, N-[2-fluoro-4-(2-{[2-methoxy-4-(morpholin-4-ylcarbonyl)phenyl]amino}[,2]-triazolo[1,5-a]pyridin-6-yl)phenyl]-2-(4-fluorophenyl)acetamide]: the IC50 was not above 1 nM.

With `COc1cc(C(=O)N2CCOCC2)ccc1Nc1nc2ccc(-c3ccc(NC(=O)Cc4ccc(F)cc4)nc3)cn2n1` [Example 11.01, 2-(4-fluorophenyl)-N-[5-(2-{[2-methoxy-4-(morpholin-4-ylcarbonyl)phenyl]amino}[,2]triazolo[1,5-a]pyridin-6-yl)pyridin-2-yl]acetamide], the half-inhibitory concentration (IC50) came out at 1.62 nM.

With `CCOc1cc(C(=O)N2CCOCC2)ccc1Nc1nc2ccc(-c3ccc(NC(=O)Cc4ccc(F)cc4)nc3)cn2n1` [Example 11.02, N-[5-(2-{[2-ethoxy-4-(morpholin-4-ylcarbonyl)phenyl]amino}[,2]triazolo[1,5-a]pyridin-6-yl)pyridin-2-yl]-2-(4-fluorophenyl)acetamide], the half-maximal inhibitory concentration (IC50) was not above 1 nM.

`COc1cc(N2CCOC2=O)ccc1Nc1nc2ccc(-c3ccc(C(=O)NCc4ccc(F)cc4F)c(C)c3)cn2n1` [Example 12.01, N-(2,4-difluorobenzyl)-4-(2-{[2-methoxy-4-(2-oxo-1,3-oxazolidin-3-yl)phenyl]amino}[,2]triazolo[1,5-a]pyridin-6-yl)-2-methylbenzamide]: the IC50 was not above 1 nM.
